“Also recorded” adds a separate entry of the source. Where two headings read alike, the source gives them in different places.
Assays:
H446 = experiment: In vitro growth inhibition, soft-agar; format: cell-based
Description: (§1) The inhibition of growth was tested in a variety of cancer cell lines.
(§2) All cell lines were obtained from American Type Culture Collection (ATCC, Manassas, Va.) and culture media and supplements were supplied by ATCC and Invitrogen (Carlsbad, Calif.). The ATP assay was performed using […]-GLO Luminescent Cell Viability Assay Kit from Promega (Madison, Wis.) which allows ATP to be roughly quantified based on the […] emitted by the cells. Luminescence was recorded using VICTOR-22 1420 (Perkin Elmer, Waltham, Mass.).
(§3) The soft-agar coupled thymidine incorporation assay is used to determine the ability of cells to form colonies through invasion into agar matrix. A bottom feeder layer of cells was composed of 0.6% NUSIEVE GTG agarose (Cambrex, East Rutherford, N.J.), D-MEM with low glucose, 2 mM L-glutamine, and 15% charcoal/dextran-treated FBS. Test cells were seeded in the top soft-agar layer containing 0.3% NUSIEVE GTG agarose, D-MEM (low glucose), 2 mM L-glutamine, and 15% charcoal/dextran-treated FBS at a density of 10,000-20,000 cells per well. Test cells were labeled with [^3H] thymidine at 50 nM. Labeled cells were collected and counted as described above.
(§4) For the soft-agar colony formation assay, cells were cultured in 6-well plates containing two agar layers with growth medium. The bottom feeder layer contained 0.5% DIFCO Noble Agar (Becton Dickinson & Co., East Rutherford, N.J.), D-MEM with low glucose and 2 mM L-glutamine, and 15% charcoal/dextran-treated FBS. Test cells were seeded in the top soft-agar layer containing 0.3% agarose, D-MEM (low glucose), 2 mM L-glutamine, and 15% charcoal/dextran-treated FBS at a density of 10,000 cells per well. After treatment with drugs, cell colonies were counted under a light microscope.
(§5) Efficacy is the maximal inhibition of cell growth at the maximal concentration used in the studies. ND means the results were not determined.

T47D [1] = experiment: In vitro growth inhibition, soft-agar; format: cell-based
Description: as §1, §2, §3, §4, §5

[2] = test system: refractory malignancies (progressive, solid tumors); experiment: Phase I/II study of IRX4204 in refractory malignancies; format: in vivo, Humans
From the text: Data was collected for 18 patients with progressive, solid tumors.

FXR/RXR = target: T1, FXR/RXR (Homo sapiens, UniProt P19793); experiment: Permissive heterodimer transactivation assay, CV-1 cells, 3x(IBABP/IRI)-tk-Luc; format: cell-based; details: 20 hr; relative to GW4064
T1 construct: expressed in transfected cells; host or cells: CV-1
From the text: (§6) For PPARγ: CV-1 cells were transfected with 3×(rAOX/DR1)-tk-Luc reporter gene and an expression vector for PPARγ. For FXR:CV-1 cells were transfected with 3×(IBABP/IRI)-tk-Luc reporter gene and vectors for FXR and RXRα. For LXR:CV-1 cells were transfected with 3×(PLTP/LXRE)-tk-Luc reporter gene with vectors for LXRα or LXRβ. For Nurr1: COS7 cells were transfected with 3×NBRE-tk-luc reporter gene and full length Nurr-1 with or without full-length RXRα plasmid. […] Luciferase data were normalized to co-transfected β-gal activity. Luciferase activity was expressed as percent of maximal activity obtained using specific agonists. Rosiglitazone (PPARγ), GW4064 (FXR), T0901317 (LXR).

RXRγ = target: T2, RXRγ (Homo sapiens, UniProt P48443); experiment: RXR homodimer transactivation assay (rCRBPII/RXRE-tk-Luc reporter) in CV-1 cells; format: cell-based
T2 construct: an expression construct including a full length RXRα, RXRβ, or RXRγ; expressed in transfected cells; host or cells: CV-1
Description: To determine whether a RXR agonist can mediate its effects via RXRα receptor homodimers, RXRβ receptor homodimers, RXRγ receptor homodimers, or any combination thereof, or the corresponding RAR/RXR heterodimers, receptor-mediated transactivation assays were performed. For transactivation assays assessing RXR homodimer signaling, CV-1 cells were transfected with 1) an expression construct including a full length RXRα, RXRβ, or RXRγ; and 2) a rCRBPII/RXRE-tk-Luc reporter construct that included RXR homodimer-specific RXRE/DR1 responsive element linked to a luciferase gene. For transactivation assays assessing RAR/RXR heterodimer signaling, CV-1 cells were transfected with 1) an expression construct comprising a fusion protein including an estrogen receptor (ER) DNA binding domain linked to the ligand binding domain of RARα, RARβ, or RARγ and 2) a ERE-tk-Luc reporter construct that included an estrogen receptor responsive element linked to a luciferase gene. The ER-RAR fusion proteins provided an accurate readout of only the transfected ER-RAR. […] Data are mean values±SE from five independent experiments.

SW48 = experiment: In vitro growth inhibition, cell counting; format: cell-based; details: SW48, Colon, maximal inhibition at 1 μM
Nurr1/RXR = Nurr1/RXR (Homo sapiens, UniProt P19793); experiment: Permissive heterodimer transactivation assay, COS7 cells, 3xNBRE-tk-luc; format: cell-based; details: Nurr-1 with RXRα
From the text: as §6

ME-180 = experiment: In vitro growth inhibition, ATP assay ([…]-GLO); format: cell-based
Description: as §1, §2, §5

HT-3 = experiment: In vitro growth inhibition, ATP assay ([…]-GLO); format: cell-based
Description: as §1, §2, §5

U937 = experiment: In vitro growth inhibition, ATP assay ([…]-GLO); format: cell-based
Description: as §1, §2, §5

MCF-7 = experiment: In vitro growth inhibition, ATP assay ([…]-GLO); format: cell-based
Description: as §1, §2, §5

HuT 78 = experiment: In vitro growth inhibition, ATP assay ([…]-GLO); format: cell-based
Description: as §1, §2, §5

T47D [3] = experiment: In vitro growth inhibition, ATP assay ([…]-GLO); format: cell-based
Description: as §1, §2, §5

A-427 = experiment: In vitro growth inhibition, ATP assay ([…]-GLO); format: cell-based
Description: as §1, §2, §5

SiHa = experiment: In vitro growth inhibition, ATP assay ([…]-GLO); format: cell-based
Description: as §1, §2, §5

SW403 = experiment: In vitro growth inhibition, ATP assay ([…]-GLO); format: cell-based
Description: as §1, §2, §5

SK-BR-3 = experiment: In vitro growth inhibition, ATP assay ([…]-GLO); format: cell-based
Description: as §1, §2, §5

RXRα = RXRα (Homo sapiens, UniProt P19793); details: CV-1 cells, 20 hours, luciferase
Description: To determine whether a RXR agonist can mediate its effects via RXRα receptor homodimers, RXRβ receptor homodimers, RXRγ receptor homodimers, or any combination thereof, or the corresponding RAR/RXR heterodimers, receptor-mediated transactivation assays were performed. For transactivation assays assessing RXR homodimer signaling, CV-1 cells were transfected with 1) an expression construct including a full length RXRα, RXRβ, or RXRγ; and 2) a rCRBPII/RXRE-tk-Luc reporter construct that included RXR homodimer-specific RXRE/DR1 responsive element linked to a luciferase gene. For transactivation assays assessing RAR/RXR heterodimer signaling, CV-1 cells were transfected with 1) an expression construct comprising a fusion protein including an estrogen receptor (ER) DNA binding domain linked to the ligand binding domain of RARα, RARβ, or RARγ and 2) a ERE-tk-Luc reporter construct that included an estrogen receptor responsive element linked to a luciferase gene. […] Data are mean values±SE from five independent experiments.

H-82 = experiment: In vitro growth inhibition, [3H] thymidine incorporation; format: cell-based
Description: as §1, §2
(§7) The thymidine incorporation assay allows for specific detection of [^3H]-labeled thymidine (Perkin-Elmer) incorporated into newly synthesized DNA. Labeled cells were collected and their DNA was harvested on to a fiberglass filter using MLR24 Cell Harvester (Brandel, Geithersburg, Md.). The amount of incorporated [^3H] thymidine was determined by scintillation counting using Trilux-1450 Microbeta Counter (Perkin-Elmer).
as §5

HL-60 = experiment: as above; format: cell-based
Description: as §1, §2, §7, §5

LXRα/RXR = experiment: Permissive heterodimer transactivation assay, CV-1 cells, 3x(PLTP/LXRE)-tk-Luc; format: cell-based; details: 20 hr; relative to T0901317
From the text: as §6

LXRβ/RXR = experiment: as above; format: cell-based; details: 20 hr; relative to T0901317
From the text: as §6

[4] = cited from earlier work
[5] = Homo sapiens, Breast ER-positive

T1 sequence (Q96RI1 whole entry partner): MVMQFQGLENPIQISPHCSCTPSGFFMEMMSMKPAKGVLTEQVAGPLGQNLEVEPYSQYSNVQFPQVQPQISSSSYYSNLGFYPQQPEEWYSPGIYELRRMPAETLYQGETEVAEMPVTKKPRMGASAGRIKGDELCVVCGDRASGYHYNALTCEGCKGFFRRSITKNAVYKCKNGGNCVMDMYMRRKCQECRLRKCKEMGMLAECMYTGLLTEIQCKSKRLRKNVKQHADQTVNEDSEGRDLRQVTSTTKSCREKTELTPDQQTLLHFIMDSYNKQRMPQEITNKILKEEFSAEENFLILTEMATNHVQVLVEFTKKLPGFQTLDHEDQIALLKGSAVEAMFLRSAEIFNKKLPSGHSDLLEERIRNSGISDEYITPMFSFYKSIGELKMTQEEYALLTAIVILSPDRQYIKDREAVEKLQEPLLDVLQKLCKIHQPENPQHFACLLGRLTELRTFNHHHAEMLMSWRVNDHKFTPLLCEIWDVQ
T1 sequence (P19793 whole entry): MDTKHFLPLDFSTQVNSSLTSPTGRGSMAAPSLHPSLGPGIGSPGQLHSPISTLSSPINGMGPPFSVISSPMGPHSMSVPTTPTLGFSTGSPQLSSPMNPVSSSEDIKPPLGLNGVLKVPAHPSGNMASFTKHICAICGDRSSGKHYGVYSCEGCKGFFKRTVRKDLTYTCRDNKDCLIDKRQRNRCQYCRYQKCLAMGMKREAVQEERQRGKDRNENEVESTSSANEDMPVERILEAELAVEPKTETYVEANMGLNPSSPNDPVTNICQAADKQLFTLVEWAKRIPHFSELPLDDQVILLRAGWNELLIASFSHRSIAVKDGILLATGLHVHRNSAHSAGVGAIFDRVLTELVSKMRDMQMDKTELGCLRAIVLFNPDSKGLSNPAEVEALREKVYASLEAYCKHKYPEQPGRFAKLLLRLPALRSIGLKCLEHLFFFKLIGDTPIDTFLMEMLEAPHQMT
Nurr1/RXR, sequence (P43354 whole entry partner): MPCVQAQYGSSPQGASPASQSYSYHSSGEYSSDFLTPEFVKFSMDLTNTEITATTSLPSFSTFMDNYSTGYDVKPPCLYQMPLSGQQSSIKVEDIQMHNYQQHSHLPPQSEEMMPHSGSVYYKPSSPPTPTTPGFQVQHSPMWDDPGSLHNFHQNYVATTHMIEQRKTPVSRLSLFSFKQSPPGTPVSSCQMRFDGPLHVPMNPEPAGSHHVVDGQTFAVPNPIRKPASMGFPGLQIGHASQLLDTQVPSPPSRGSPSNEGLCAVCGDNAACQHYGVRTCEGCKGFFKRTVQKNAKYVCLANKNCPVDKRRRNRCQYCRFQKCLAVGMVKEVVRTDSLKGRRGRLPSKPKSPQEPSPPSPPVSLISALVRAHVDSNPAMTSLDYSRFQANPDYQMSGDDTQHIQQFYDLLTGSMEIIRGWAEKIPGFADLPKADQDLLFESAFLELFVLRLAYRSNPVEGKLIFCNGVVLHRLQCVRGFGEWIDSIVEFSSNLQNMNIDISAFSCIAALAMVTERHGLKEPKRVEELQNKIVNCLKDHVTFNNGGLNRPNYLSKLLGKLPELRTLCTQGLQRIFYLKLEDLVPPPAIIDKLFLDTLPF
Nurr1/RXR, sequence (P19793 whole entry): as the sequence (P19793 whole entry) above
RXRα, sequence (P19793 whole entry, the tested form may be a part): as the sequence (P19793 whole entry) above
T2 sequence (P48443 whole entry): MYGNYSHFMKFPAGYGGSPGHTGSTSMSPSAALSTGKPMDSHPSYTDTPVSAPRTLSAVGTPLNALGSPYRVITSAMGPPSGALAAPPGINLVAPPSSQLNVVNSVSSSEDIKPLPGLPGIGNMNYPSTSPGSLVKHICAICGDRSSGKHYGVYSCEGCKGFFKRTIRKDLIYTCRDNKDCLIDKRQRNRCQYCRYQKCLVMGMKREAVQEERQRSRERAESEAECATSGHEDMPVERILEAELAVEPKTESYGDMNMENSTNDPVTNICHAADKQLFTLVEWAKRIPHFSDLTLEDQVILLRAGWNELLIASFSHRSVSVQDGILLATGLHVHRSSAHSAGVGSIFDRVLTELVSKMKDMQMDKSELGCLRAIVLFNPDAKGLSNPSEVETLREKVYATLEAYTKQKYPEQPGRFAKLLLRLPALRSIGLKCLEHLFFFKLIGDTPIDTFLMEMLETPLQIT

## CC(/C=C/[C@@H]1C[C@]1(C)c1ccc2c(c1)C(C)(C)CCC2(C)C)=C\C(=O)O [IRX4204, 3,7-dimethyl-6(S),7(S)-methano,7-[1,1,4,4-tetramethyl-1,2,3,4-tetrahydronaphth-7-yl]2(E),4(E) heptadienoic acid]
H446; H446, Soft-Agar, maximal inhibition at 1 μM
  Efficacy (Conc.): 44%
H446; Homo sapiens, NCI-H446, H446, Small Cell Lung Cancer, Soft-Agar
  IC50: 17 nM
T47D [1]; [5]
  IC50: 12.6 nM
T47D [1]; maximal inhibition at 10 μM
  Efficacy (Conc.): 97%
[2]; 18 patients with progressive, solid tumors, 9 patients
  patients who did not exhibit tumor progression for at least four months: 50%
[2]; patients, once-daily oral 3, 6, 12, 24 mg/m^2, minimum four weeks
  adverse events recorded: triglyceride elevation and hypothyroidism
[2]; patients, once-daily oral 3, 6, 12, 24 mg/m^2, minimum four weeks, 18 patients
  serious adverse events related to IRX4204: no serious adverse events considered possibly or probably related to IRX4204
FXR/RXR
  activation of FXR/RXR heterodimer: not to transactivate; also recorded: does not activate
RXRγ
  Efficacy (% of 1 μM IRX4204) RXRγ: 0.09 ± 0.01 100 % of 1 μM IRX4204
SW48
  Efficacy (Conc.): 60%
Nurr1/RXR
  activation of Nurr1/RXR permissive heterodimer: selectively activates
ME-180; Homo sapiens, ME-180, Cervical, ATP
  IC50: 7 nM
ME-180; ME-180, ATP, maximal inhibition at 1 μM
  Efficacy (Conc.): 80%
HT-3; HT-3, ATP, maximal inhibition at 1 μM
  Efficacy (Conc.): 68%
HT-3; Homo sapiens, HT-3, Cervical, ATP
  IC50: < 1000 nM
U937; Homo sapiens, U-937, U937, Leukemia, ATP
  IC50: 0.73 nM
U937; U937, ATP, maximal inhibition at 1 μM
  Efficacy (Conc.): 94%
MCF-7; Homo sapiens, MCF7, MCF-7, Breast ER-positive, ATP
  IC50: 52 nM
MCF-7; MCF-7, ATP, maximal inhibition at 1 μM
  Efficacy (Conc.): 52%
HuT 78; Homo sapiens, HuT78, HuT 78, Cutaneous T-Cell Lymphoma, ATP, 50% of maximal inhibition
  IC50: 1.6 nM
HuT 78; HuT 78, ATP, maximal inhibition at 1 μM
  Efficacy (Conc.): 81%
T47D [3]; [5]
  IC50: 75 nM
T47D [3]; maximal inhibition at 1 μM
  Efficacy (Conc.): 97%
A-427; A-427, ATP, maximal inhibition at 10 μM
  Efficacy (Conc.): 50%
A-427; Homo sapiens, A-427, Non-Small Cell Lung Cancer, ATP
  IC50: 7.7 nM
SiHa; Homo sapiens, Cervical
  IC50: 47 nM
SiHa; maximal inhibition at 1 μM
  Efficacy (Conc.): 41%
SW403; Homo sapiens, SW-403, SW403, Colon, ATP
  IC50: 0.78 nM
SW403; SW403, ATP, maximal inhibition at 1 μM
  Efficacy (Conc.): 35%
SK-BR-3; Homo sapiens, SK-BR-3, Breast ER-negative, ATP
  IC50: 3 nM
SK-BR-3; SK-BR-3, ATP, maximal inhibition at 1 μM
  Efficacy (Conc.): 74%
RXRα
  Efficacy (% of 1 μM IRX4204) RXRα: 100 % of 1 μM IRX4204
H-82; H-82, thymidine incorporation, maximal inhibition at 1 μM
  Efficacy (Conc.): 72%
H-82; Homo sapiens, NCI-H82, H-82, Small Cell Lung Cancer, [H3] Thymidine Incorporation
  IC50: 3.6 nM
HL-60; HL-60, thymidine incorporation, maximal inhibition at 1 μM
  Efficacy (Conc.): 94%
HL-60; Homo sapiens, HL-60, Leukemia, [H3] Thymidine Incorporation
  IC50: 15 nM
LXRα/RXR
  activation of LXRα/RXR heterodimer: not to transactivate; also recorded: does not activate
LXRβ/RXR
  activation of LXRβ/RXR heterodimer: not to transactivate; also recorded: does not activate

## C=C(c1ccc(C(=O)O)cc1)c1cc2c(cc1C)C(C)(C)CCC2(C)C [bexarotene, 4-[1-(3,5,5,8,8-pentamethyl-6,7-dihydronaphthalen-2-yl)ethenyl]benzoic acid]
[4]; dose of 400 mg/m^2/d, read-out: Cmax in the blood (estimated)
  Cmax: ~8 µM
[4]; lower dose 225 mg/m^2/d, read-out: Cmax (estimated)
  Cmax: ~2 µM

Reference: patent US20190365681A1, “TREATMENT OF CANCER WITH COMBINATIONS OF RXR AGONISTS AND THYROID HORMONES” (Io Therapeutics, Inc., priority 2015, published 2019)
